Source: ChEMBL document CHEMBL3217626, “Identification of 4,6-diaryl-1,4-dihydropyridines as a new class of neuroprotective agents” (Medchemcomm, 2013)

Key:
[1] = test system: SH-SY5Y; experiment: Neuroprotective activity in human SH-SY5Y cells under oxygen and glucose deprived condition assessed as protection against oxidative stress at 5 uM co-incubated for 4 hrs under anaerobic condition measured after 20 hrs by MTT assay relative to control; type: functional
[2] = test system: SH-SY5Y; experiment: Neuroprotective activity in human SH-SY5Y cells assessed as inhibition of potassium-induced Ca2+ increase at 10 uM preincubated for 15 mins followed by potassium addition measured for 14 seconds by fluorescence assay relative to control; type: functional
[3] = test system: SH-SY5Y; experiment: Neuroprotective activity in human SH-SY5Y cells under serum-free condition assessed as cell survival at 5 uM after 24 hrs by MTT assay in presence of potassium relative to control; type: functional; settings: read-out: Survival
[4] = test system: SH-SY5Y; experiment: Neuroprotective activity in human SH-SY5Y cells under oxygen and glucose deprived condition assessed as cell survival at 5 uM co-incubated for 4 hrs under anaerobic condition measured after 20 hrs by MTT assay relative to control; type: functional; settings: read-out: Survival
[5] = test system: SH-SY5Y; experiment: Neuroprotective activity in human SH-SY5Y cells under serum-free condition assessed as protection against potassium-induced toxicity at 5 uM after 24 hrs by MTT assay relative to control; type: functional
[6] = test system: SH-SY5Y; experiment: Neuroprotective activity in human SH-SY5Y cells under oxygen and glucose deprived condition assessed as cell survival at 0.3 uM co-incubated for 4 hrs under anaerobic condition measured after 20 hrs by MTT assay relative to control; type: functional; settings: read-out: Survival
[7] = test system: SH-SY5Y; experiment: Neuroprotective activity in human SH-SY5Y cells under serum-free condition assessed as cell survival at 0.3 uM after 24 hrs by MTT assay in presence of potassium relative to control; type: functional; settings: read-out: Survival
[8] = test system: SH-SY5Y; experiment: Neuroprotective activity in human SH-SY5Y cells under oxygen and glucose deprived condition assessed as protection against oxidative stress at 0.3 uM co-incubated for 4 hrs under anaerobic condition measured after 20 hrs by MTT assay relative to control; type: functional
[9] = test system: SH-SY5Y; experiment: Neuroprotective activity in human SH-SY5Y cells under serum-free condition assessed as protection against potassium-induced toxicity at 0.3 uM after 24 hrs by MTT assay relative to control; type: functional
[10] = test system: SH-SY5Y; experiment: Neuroprotective activity in human SH-SY5Y cells assessed as inhibition of potassium-induced Ca2+ increase preincubated for 15 mins followed by potassium addition measured for 14 seconds by fluorescence assay; type: functional, cell-based
[11] = test system: SH-SY5Y; experiment: Neuroprotective activity in human SH-SY5Y cells under oxygen and glucose deprived condition assessed as cell survival at 0.1 uM co-incubated for 4 hrs under anaerobic condition measured after 20 hrs by MTT assay relative to control; type: functional; settings: read-out: Survival
[12] = test system: SH-SY5Y; experiment: Neuroprotective activity in human SH-SY5Y cells under oxygen and glucose deprived condition assessed as protection against oxidative stress at 0.1 uM co-incubated for 4 hrs under anaerobic condition measured after 20 hrs by MTT assay relative to control; type: functional

SMILES | Activity [1] | inhibition at 10 µM [2] | viability at 5 µM [3] | viability at 5 µM [4] | Activity [5] | viability at 0.3 µM [6] | viability at 0.3 µM [7] | Activity [8] | Activity [9] | IC50 [10] | inhibition [10] | viability at 0.1 µM [11] | Activity [12]
CCOC(=O)C1=C(C)NC(c2ccc(C)cc2)=CC1c1cccs1 (stereo unspecified) | 31.04% | 36.6% | 75.6% | 64.7% | 50.73% | – | – | – | – | – | – | – | –
CC1=C(C(=O)SC(C)(C)C)C(c2ccc(C)cc2)C=C(c2ccccc2)N1 (stereo unspecified) | 31.16% | 36.8% | 67.4% | 64.7% | 30.44% | – | – | – | – | – | – | – | –
CC1=C(C(=O)SC(C)(C)C)C(c2ccc(C)cc2)C=C(c2ccc(C)cc2)N1 (stereo unspecified) | 12.66% | 12.6% | 69.8% | 56% | 36.24% | – | – | – | – | – | – | – | –
CC(=O)C1=C(C)NC(c2ccccc2)=CC1c1ccccc1 (stereo unspecified) | 9.06% | 33.8% | 67.4% | 53.9% | 32.46% | – | – | – | – | – | – | – | –
COC(=O)C1=C(C)NC(C)=C(C(=O)OC)C1c1ccccc1[N+](=O)[O-] [NIFEDIPINE] | – | 59.8% | – | – | – | 55% | 58.7% | 12.4% | 15.76% | – | – | – | –
CC1=C(C(=O)SC(C)(C)C)C(/C(C)=C/c2ccccc2)C=C(c2ccccc2)N1 (stereo unspecified) | 35.82% | 40% | 69% | 63.9% | 35.26% | – | – | – | – | – | – | – | –
CCOC(=O)C1=C(C)NC(c2ccccc2)=CC1c1ccccc1 (stereo unspecified) | 22.76% | 32.5% | 67.6% | 60.8% | 34.65% | – | – | – | – | – | – | – | –
O=C1CCCC2=C1C(c1ccccc1)C=C(c1ccccc1)N2 (stereo unspecified) | 26.8% | 41.2% | 66.4% | 62.1% | 28.23% | – | – | – | – | – | – | – | –
CC1=C(C(=O)SC(C)(C)C)C(c2ccccc2)C=C(c2ccccc2)N1 (stereo unspecified) | 24.91% | 35.1% | 68% | 61.5% | 34.13% | – | – | – | – | – | – | – | –
CCOC(=O)C1=C(CC)NC(c2ccccc2)=CC1c1ccccc1 (stereo unspecified) | 17.69% | 53.8% | 67.3% | 57.6% | 31.37% | – | – | – | – | 12.8 µM | Dose-dependent effect | – | –
CCOC(=O)C1=C(C)NC(c2ccc(Cl)cc2)=CC1c1ccccc1 (stereo unspecified) | 19.26% | 44.9% | 69.3% | 58.9% | 36.57% | – | – | – | – | – | – | – | –
CC1=C(C(=O)SC(C)(C)C)C(c2ccc(Br)cc2)C=C(c2ccc(C)cc2)N1 (stereo unspecified) | 21.83% | 35.4% | 67.2% | 60.3% | 34.46% | – | – | – | – | – | – | – | –
COc1ccc(C2C=C(c3ccccc3)NC(C)=C2C(=O)SC(C)(C)C)cc1 (stereo unspecified) | 17.38% | 52.3% | 66.7% | 57.6% | 31.27% | – | – | – | – | 26.8 µM | Dose-dependent effect | – | –
COc1ccc2[nH]cc(CCNC(C)=O)c2c1 [MELATONIN] | – | – | – | – | – | – | – | – | – | – | – | 65.8% | 28.85%
